The results in this text go back to patent US20210308077A1, “COMBINATIONS INCLUDING BETA-ADRENORECEPTOR AGONISTS FOR TREATMENT OF PARKINSON`S DISEASE AND MOVEMENT DISORDERS” (The Brigham and Women`s Hospital, Inc., priority 2017, published 2021).

The test system of experiment [1] is Parkinson's disease. The experiment can be described thus: Norwegian Prescription Database analysis of incident Parkinson's disease. The class given is in vivo, human. The text has this:
We included the entire population of Norway alive on 1 Jan. 2004 by linking the Norwegian National Registry (NNR) with the Norwegian Prescription Database (NorPD) using the unique national identification number. The NNR contains information on all residents in Norway, time of immigration, emigration and death. This information was further linked to the Norwegian National Education Database (NNED) to assess level of education of all participants.
This registry contains complete information on all prescribed drugs dispensed at pharmacies to individuals since 2004. Each prescription includes the national identification number, which makes it possible to generate a precise chronological prescription record for individuals over time, and to link this information to other registries. Drugs are classified according to the Anatomical Therapeutic Chemical classification and doses are reported as defined daily dose (DDD). If the national insurance scheme covers the cost of the drug, the prescription also contains the diagnosis the drug was prescribed for (from 2008: ICD-10 and ICPC; before 2008: local diagnostic code).
The first year of prescription of any antiparkinson drug (N04) was considered year of onset of PD. We used the year 2004 as a washout-period to only include incident cases.
To further limit the chance of reverse causality, we only included users who had been prescribed at least 365 DDD or more of propranolol.
The level of education was categorized into primary education, secondary education, undergraduate education or graduate education. Age at study start was categorized in 5 years intervals. […] Outcome was PD as defined above at time of first prescription of an antiparkinson drug. Participants not developing PD were censored at end of follow-up (31 Dec. 2014), at date of death or date of emigration out of Norway, whichever occurred first. To test for dose-response effects, we categorized participants according to the cumulative number of DDD in 2004-2007 and estimated the RR of developing PD in 2008-2014. […] The hazard ratios were interpreted as rate ratios.

In experiment [2] the test system is H3K27 acetylation of SNCA promoter and enhancers. The experiment can be described thus: chromatin immunoprecipitation for H3K27ac at SNCA promoter and enhancers in SK-N-MC cells. In kind it is cell-based, human. The settings on record: clenbuterol 10 μM, valproic acid 100 μM, propranolol 100 μM, vs vehicle. As for the experimental part: Chromatin immunoprecipitation (ChIP) assays were performed using the Simple ChIP Enzymatic Chromatin IP kit protocol as recommended by the manufacturer (Cell Signaling Technology) with slight modifications. Briefly, ChIPs were performed on asynchronously growing SK-N-MC cells treated with clenbuterol (10 μM), valproic acid (100 μM) or propranolol (100 μM). Cross-linking was carried out with 1% formaldehyde for 10 min at room temperature. Cross-linking was subsequently quenched by adding glycine to a final concentration of 1× for 5 min. Cells were collected and washed twice with PBS, then resuspended in 2 mL of lysis buffer (as described in the protocol). After 10 min on ice, cells were treated with micrococcal nuclease and then sonicated to obtain DNA fragments of ˜500 bp as determined by agarose gel electrophoresis with ethidium bromide staining. Protein-DNA complexes were isolated by centrifugation at 10,000 rpm for 10 min. Supernatants with protein-DNA complexes were incubated overnight with rabbit polyclonal antibody directed against acetylated H3K27 (Abcam). Normal rabbit IgG was used as a negative control and Histone H3 rabbit mAb (ChIP formulated) as positive control. 2% of sample was saved as input. Antibody-protein-DNA complexes were further incubated for 2 hours with 30 μl of ChIP-grade Protein G magnetic beads to isolate antibody bound fractions of chromatin. Immuno-complexes were washed with the buffers provided and as described in the kit. Protein-DNA complexes were eluted and cross-links of pull down fractions and inputs (2% of total IP fraction) were reversed by 2 hours incubation in Proteinase K and 5 M NaCl at 65° C. […] 2 μl of immunoprecipitated DNA was analyzed by qPCR using a Power SYBR Green PCR Master mix (Applied Biosystems by Life technologies) on an ABI 7900HT instrument (Applied Biosystems) with the following temperature profile: 3 min of enzyme activation at 95° C. followed by 40 cycles of 95° C. for 15 s and 60° C. for 60 s. Sample from three independent immunoprecipitation assays were analyzed.

The subject of experiment [3] is Snca mRNA. Kind of experiment: Snca mRNA in rat primary cortical neurons. The settings on record: metaproterenol 5 μM, clenbuterol 20 μM, salbutamol 10 μM, 48 hours. In kind it is cell-based. As for the experimental part:
Primary cortical cultures were generated from E18 Sprague-Dawley rat embryos. The cortical region was dissected out in Hank's Balanced Salt Solution buffered with Hepes and dissociated with 0.125% trypsin (Invitrogen) for 17 min at 37 ° C., followed by trituration. Dissociated cells were plated at a density of 5×10^5 cells/well or 2.5×10^5 cells/well in 12-well or 24-well plates, respectively precoated with poly-D lysine (100 μg/mL). The cells were cultured in Neurobasal medium with B-27 supplement (Invitrogen) and glutamax and gentamycin. Half of the medium was changed every 4 days. Cortical neurons were treated with β2AR agonists 10 days post plating. They were then harvested 48 hours post-treatment for mRNA extraction and 72 hours post-treatment for protein extraction.
Total RNA from flash-frozen mice brain tissue, rodent primary cells, human neuroblastoma cells and iPSC-derived neuronal cells was isolated using TRIzol® (Life Technologies) following the manufacturer's protocol. RNA concentration was measured using NanoDrop spectrophotometer (Thermo Fisher Scientific, Wilmington, De.). 2 μg of total RNA was reverse transcribed into cDNA using the High Capacity cDNA Reverse Transcription Kit from Applied Biosystems. Quantitative PCR was performed using TaqMan Universal PCR Master Mix (Applied Biosystems) on an ABI 7900HT instrument (Applied Biosystems) as described previously (31). For mouse brain tissue and rat primary cortical neuron samples, rodent-specific TaqMan Assay on-demand primers and probes were used to assay the relative abundance of target genes, and rodent Rp113 was used as a reference gene to normalize for RNA loading. Similar results were obtained when Actb or Ubc were used as controls for input RNA. For human neuroblastoma and iPSC-derived neuron samples, human TaqMan Assay on-demand probes were used to assay the relative abundance of target genes, and the geometric mean of the three human reference genes RPL13, GUSB and UBC was used to normalize for RNA loading. Expression values were analyzed using the comparative threshold cycle method (31).

For the compound `CC(C)NCC(O)COc1cccc2ccccc12` (stereo not drawn) [Propranolol, propranolol], the “Rate ratio (RR) for Parkinson's disease, age-, sex-adjusted” value in experiment [1] (ever user vs never user, 11 year follow-up of the entire population of Norway, propranolol: at least 365 defined daily doses) is listed as 2.16. In addition, in experiment [1] (ever user vs never user, 11 year follow-up, adjusted for age, sex and level of education, propranolol: at least 365 defined daily doses), the “Rate ratio (RR) for Parkinson's disease, multivariate adjusted” value was 2.20. The “Rate ratio for Parkinson's disease with time lag between first exposure and PD onset” value in experiment [1] (time lags of one and two years, only cardiovascular diagnoses) is recorded as 1.82. In addition, in experiment [2], the “H3K27 acetylation across SNCA promoter and two intronic enhancers (ChIP)” value is “increased H3K27Ac”.

For `CC(C)(C)NCC(O)c1ccc(O)c(CO)c1` (stereo not drawn) [Salbutamol, salbutamol], the “Rate ratio (RR) for Parkinson's disease during 2008-2014, multivariate adjusted” value in experiment [1] (High (≥180 DDD) prescribed during 2004-2007, vs never user) is recorded as 0.45 (0.31-0.67); in experiment [1] (Medium (60-180 DDD) prescribed during 2004-2007, vs never user), 0.60 (0.40-0.91). Further, in experiment [3], the “endogenous Snca mRNA” value is on record as “significantly, but modestly, reduced”.

Regarding `CC(C)(C)NCC(O)c1cc(Cl)c(N)c(Cl)c1` (stereo not drawn) [clenbuterol], in experiment [3], the “endogenous Snca mRNA” value is given as “significantly, but modestly, reduced”. Besides, the “H3K27 acetylation across SNCA promoter and two intronic enhancers (ChIP)” value in experiment [2] is given as “reduced H3K27 acetylation”.
